Assay results from patent US6514989B1, “Aromatic and heteroaromatic substituted 1,2,4-triazolo pyridine derivatives” (Hoffmann-La Roche Inc., priority 2001, dated 2003).

Columns and labels:
[1] = molecular target: T1, human adenosine A1 receptor (Homo sapiens, UniProt P30542); assay: Human adenosine A1 receptor radioligand binding assay ([3H]-DPCPX, SPA, CHO cell membranes); details: recombinant human A1 receptor expressed in CHO cells; [3H]-DPCPX 0.6 nM; Ki from IC50 by Cheng-Prussoff equation; read-out: hA1 Ki
T1 construct: expressed in transfected cells; host or cells: CHO cells, semliki forest virus expression system; membrane preparation
T1 sequence (P30542 1-326): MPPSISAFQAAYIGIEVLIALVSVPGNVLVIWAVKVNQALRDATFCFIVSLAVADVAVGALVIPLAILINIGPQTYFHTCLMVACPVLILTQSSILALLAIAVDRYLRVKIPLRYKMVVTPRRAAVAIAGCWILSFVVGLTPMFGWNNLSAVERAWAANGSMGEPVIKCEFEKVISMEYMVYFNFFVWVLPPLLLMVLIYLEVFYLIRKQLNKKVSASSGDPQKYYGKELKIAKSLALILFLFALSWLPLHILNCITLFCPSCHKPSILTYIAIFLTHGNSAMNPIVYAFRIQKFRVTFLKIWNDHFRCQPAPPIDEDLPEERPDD
Method: Human Adenosine A^1 Receptor
The gene encoding human adenosinie A1 receptor was recombinantly introduced and expressed in chinese hamster ovary (CHO) cells using the semliki forest virus expression system. Cells were harvested, washed twice by centrifugation, homogenized and again washed by centrifugation. The final washed membrane pellet was suspended in a Tris (50 mM) buffer containing 120 mM NaCl, 5 mM KCl, 2 mM CaCl2 and 10 mM MgCl2 (pH 7.4) (buffer A). The [^3H]-DPCPX (([propyl-3H]8-cyclopentyl-1,3-dipropyxanthine); 0.6 nM) binding assay was carried out in 96-well plates in the presence of 2.5 μg of membrane protein, 0.5 mg of Ysi-poly-1-lysine SPA beads and 0.1 U adenosine deaminase in a final volume of 200 μl of buffer A. Non-specific binding was defined using xanthine amine congener (XAC; 2 μM). Compounds were tested at 10 concentrations from 10 μM-0.3 nM. All assays were conducted in duplicate and repeated at least two times. Assay plates were incubated for 1 hour at room temperature before centrifugation and then bound ligand determined using a Packard Topcount scintillation counter. IC50 values were calculated using a non-linear curve fitting program and Ki values calculated using the Cheng-Prussoff equation.
(§1) In accordance with the invention, it has been shown that compounds of formula I have a high affinity toward the A2A receptor. In Table I below specific values of prepared compounds are described, Values of KiHA2A and KiHA1 are shown in Table I for compounds of formula 1. A low Ki value is indicative of a particular compound's high affinity toward a particular receptor and conversely a higher Ki value is indicative of a lower affinity for that compound toward a particular receptor. […] Generally speaking, compounds that have a higher HA1/HA2A ratio are able to give a substantially complete blockade of the HA2A receptor without substantially affecting the A1 receptor.

[2] = molecular target: T2, human adenosine A2a receptor (Homo sapiens, UniProt P29274); assay: Human adenosine A2a receptor radioligand binding assay ([125I]-AB-MECA, CHO cell membranes); details: for Selectivity A1/A2a: ratio obtained by dividing KiHA1 by KiHA2A; for Ki: recombinant human A2a receptor expressed in CHO cells, Ki from IC50 by Cheng-Prussoff equation, read-out: hA2a Ki
T2 construct: expressed in transfected cells; host or cells: CHO cells, semliki forest virus expression system; membrane preparation
Method: Human Adenosine A2a Receptor
The gene encoding human adenosine A2a receptor was recombinantly introduced and expressed in chinese hamster ovary (CHO) cells using the semliki forest virus expression system. Cells were harvested, washed twice by centrifugation, homogenized and again washed by centrifugation. The final washed membrane pellet was suspended in a Tris (50 mM) buffer containing 120 mM NaCl, 5 mM KCl, 2 mM CaCl2 and 10 mM MgCl2 (pH 7.4) (buffer A). The [^125I]-AB-MECA ([N(6)-(4-amino-3-iodobenzyl)-5′-N-methylcarbamoyl-adenosine]; 0.05 nM) binding assay was carried out in 96-well a plates in the presence of 20 μg of membrane protein and 0.1 U adenosine deaminase in a final volume of […] of buffer A. Non-specific binding was defined using xanthine amine congener (XAC; 2 μM). Compounds were tested at 10 concentrations from 10 μM-0.3 nM. All assays were conducted in duplicate and repeated at least two times. Assay plates were incubated for 1 hour at room temperature before filtration through Whatman Unifilter GF/C 96-well filter plates (preincubated with 0.3% polyethyleneimine). Filters were washed 3 times with 0.3 ml of cold (4° C.) Tris (50 mM)—NaC […]
[…] 1 (120 mM) buffer (pH 7.4). Microscint 40 scintillation fluid (50 μl) was added to each well and the wells sealed. After gentle shaking for 20 min, plates were counted on a Packard Topcount scintillation counter. IC50 values were calculated using a non-linear curve fitting program and Ki values calculated using the Cheng-Prussoff equation.
as §1

T2 sequence (P29274 whole entry): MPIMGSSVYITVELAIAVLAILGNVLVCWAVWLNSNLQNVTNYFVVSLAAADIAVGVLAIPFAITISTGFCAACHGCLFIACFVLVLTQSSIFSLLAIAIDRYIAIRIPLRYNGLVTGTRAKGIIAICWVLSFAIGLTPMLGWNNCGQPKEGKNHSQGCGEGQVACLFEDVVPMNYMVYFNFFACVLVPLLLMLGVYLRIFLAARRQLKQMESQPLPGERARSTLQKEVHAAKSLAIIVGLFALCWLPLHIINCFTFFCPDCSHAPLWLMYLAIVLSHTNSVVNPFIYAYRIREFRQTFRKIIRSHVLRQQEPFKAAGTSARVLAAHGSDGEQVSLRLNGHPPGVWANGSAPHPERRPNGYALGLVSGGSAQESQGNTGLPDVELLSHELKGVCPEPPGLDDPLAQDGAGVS

Structure (SMILES) | Ki [1] | Selectivity A1/A2a [2] | Ki [2]
COc1ccc(-c2ccsc2)n2nc(NC(=O)c3ccc(F)cc3)nc12 [Example 33, 4-Fluoro-N-(8-methoxy-5-thiophen-3-yl-[1,2,4]triazolo[1,5-a]pyridin-2-yl)-benzamide] | 2340 nM | 12.3 | 191 nM
CCOc1cccc(-c2ccc(OC)c3nc(NC(=O)c4ccc(F)cc4)nn23)c1 [Example 34, N-[5-(3-Ethoxy-phenyl)-8-methoxy-[1,2,4]triazolo[1,5-a]pyridin-2-yl]-4-fluoro-benzamide] | 1490 nM | 11.2 | 133 nM
COc1ccc(-c2cccc(F)c2)n2nc(NC(=O)c3ccc(C)s3)nc12 [Example 35, 5-Methyl-thiophene-2-carboxylic acid [5-(3-fluoro-phenyl)-8-methoxy-[1,2,4]triazolo[1,5-a]pyridin-2-yl]-amide] | 1360 nM | 10.6 | 128 nM
